# Data from patent US4276890A, “Tobacco smoking inhibitor” (priority 1979, dated 1981).
# “And” between values parts separate entries of the source, which are not always exact repeats. Equal entries are not always repeated. “Also recorded” adds a separate entry of the source.
# Legend:
# [1] = test system: convulsions produced by pentylenetetrazole or strychnine; conditions: 300 to 500 mg per kg; cited from earlier work
# non-smoker volunteers = assay: Non-smoker control volunteers on same regimen; format: in vivo, human (non-smokers); conditions: five non-smokers; in excess of 500 mg per day for several days
# Experimental: As a control, five non-smoker volunteers were tested according to the same regimen, receiving varying quantities of ethyl maltol in excess of 500 mg. per day for periods of several days.
# [2] = Dissolution in the mouth of gamma pyrone particles dispersed in chewing gum; format: physicochemical; conditions: particles 300 to 400 mesh
# Experimental: The formation of a chewing gum for administering a gamma pyrone according to the invention is next described. Crystaline ethyl maltol was ground and sieved to 300 mesh. The ground particles acquired a static charge, tending to float upwards. In practice, it was possible to sieve the particles upwards, collecting only those which passed through the 300 mesh screen.
# The ground particles were mixed at 45° C. with a plastic chewing gum base, until evenly distributed throughout the mass. The chewing gum base was selected to be free of amino acids, tannins and other flavoring elements capable of combining with gamma pyrone to yield bitter off flavors. The rate of release of gamma pyrone into the oral cavity is a function of the rate of solution of the gamma pyrone as the gum is chewed. The rate of solution is controlled by the size of the gamma pyrone particles dispersed in the gum. Optimally, for ethyl maltol, particles in the size range from 300 to 400 mesh when dispersed in such a matrix, are dissolved in the mouth in about 30 minutes. The gamma pyrone must be dispersed throughout the gum in particulate form to provide the desired sustained release effect, particles […] than 300-400 mesh dissolved more slowly, so that the incremental dose was delivered more slowly. […] particles dissolved more rapidly than desired so that the dose was delivered in an undesirably short time. […]
# smoking habit of smokers = assay: Single dose response in smokers (Example 3); format: in vivo, human (volunteer smokers)
# Experimental: The effect of a single dose of ethyl maltol in the range from 100 mg to 1,200 mg was tested on thirty volunteer subjects who were smokers. As a control, an additional ten smokers were given an inert placebo, a similar candy or gum laced with ascorbic acid and citric acid to impart a medicinal flavor. […] The threshold of effectiveness varied with the individual's age, sex, weight, smoking history, and habits. […] These studies established the existence of a critical threshold dose level below which the effectiveness of ethyl maltol as a tobacco smoking inhibitor was not observed. In subsequent tests where the gamma pyrone was administered in a dose series extending over several days, daily doses of less than about 300 mg per day were similarly ineffective.
# [3] = per day; cited from earlier work
# [4] = test system: hexobarbital-induced sleeping time; conditions: 300 to 500 mg per kg; cited from earlier work
# Solubility = format: physicochemical
# Experimental: The troches were made essentially by conventional candy making techniques. The polysaccharide and starch were first dry blended to substantial uniformity. About 3-4% by weight of water was added to the dry powder to form a thick paste. This paste was then heated to produce a uniform viscous melt. Maltol or ethyl maltol were added to this melt as saturated solutions in boiling water. The water solubility of the gamma pyrones is somewhat limited. For example, one gram of ethyl maltol requires 6 ml of water at 100° C. to dissolve completely. Since the water content of the mixture must be kept low, the amount of ethyl maltol which can be incorporated is about 3-4%, and preferably about 1% by weight of the troche. […] Alternatively, the entire process can be carried out in a suitable pressure apparatus.
# [5] = test system: cigarette consumption of smokers; assay: Multi-day dose course in individual smokers (Example 4, Table 1): tobacco consumption; format: in vivo, human (volunteer smokers)
# Source text: Smoking behavior is complex and includes cigarette, pipe and cigar smoking. Both from the standpoint of habituation and of health hazard, cigarette smoking is considered to be the most serious. It is contemplated that the treatment method described herein will be effective to inhibit all forms of smoking behavior and combinations thereof, involving the consumption of tobacco. For convenience, the ensuing discussion focuses on cigarette smoking, as exemplary of smoking behavior in general. Tobacco consumption is a function the number of cigarettes smoked and the proportion of each cigarette smoked. Reduction of consumption is measured by comparison with a smoker's pretreatment consumption rate. All data used herein are expressed as percent reduction, i.e., the differential between pretreatment and current smoking consumption rate divided by the pretreatment rate, times 100. All rates are calculated to take into account both the number of cigarettes smoked and the proportion of each smoked.
# Extensive tests were made of individual smokers of varied age, smoking history, and sex in a course of treatment extending over several days. All smokers tested in this experiment were initially naive as to the purpose of the test or the expected effect. The subjects volunteered for the tests after being told that the material is safe according to FDA food additive standards and that they were to report all observed effects. So far as can be ascertained none of the subjects deduced the true purpose of the test until the effects were made obvious by substantial involuntary reduction in their smoking activities. Subjects were interviewed before the dosage course to insure that they were in general good health. Interviews were also conducted during and after the dosage course, at least every third day to ascertain what physiological or psychological effects were experienced. No side effects were noted during or after the treatment cycle.
# Several individuals from the original test series volunteered for additional testing. In all such instances, a treatment free period of three weeks to three months was interposed between tests.
# Subjects are identified by number. The original, naive tests are identified by the letter "a" following the subjects' number. Subsequent test series are identified sequentially by "b" and "c", where appropriate.
# All subjects except nos. 10 and 11 received ethyl maltol in a chewing gum with instructions to chew for at least 10 minutes, and preferably 15 minutes. Subjects 10 and 11 received ethyl maltol in tablet form, rather than by sustained release in the mouth.
# [6] = cited from earlier work
# [7] = chewing gum, 600 mg/day, 1 day, subject 8b
# [8] = chewing gum, 800 mg/day, course: 1a 16 days, 2b 20, 7b 20, 8a 1, 9a 5 days
# [9] = chewing gum, 900 mg/day, 12 days, subject 2a
# [10] = chewing gum, 1200 mg/day, 8 days, subject 4a
# [11] = chewing gum, 1500 mg/day, 25 days, subject 3a
# [12] = tablets, 1000 mg/day, 15 days, subject 11a
# [13] = tablets, 1200 mg/day, 10 days, subject 10a
smiles,measurement,setting,value
"CCc1occc(=O)c1O [ethyl maltol, 3-hydroxy-2-ethyl-4-pyrone]",convulsions produced by pentylenetetrazole or strychnine,[1],inhibited convulsions
same,psychological or physiological effects,non-smoker volunteers,no psychological or physiological effects
same,dissolution time in the mouth from gum,[2],about 30 minutes
same,"threshold dose, chewing gum versus tablet",smoking habit of smokers; chewing gum over ten to fifteen minutes versus tablet,somewhat lower
same,reaction to cigarettes,smoking habit of smokers; single dose greater than 300 mg,immediate overt negative reaction to cigarettes
same,duration of substantially reduced level of smoking,smoking habit of smokers; single dose greater than 500 mg,a few hours to two days
same,desire to smoke cigarettes,"smoking habit of smokers; single dose greater than 500 mg, substantially all individuals",a definitive result of reduced desire to smoke cigarettes
same,"effect of dose greater than 1,200 mg","smoking habit of smokers; single dose greater than 1,200 mg",no addition advantage
same,effect on smoking,smoking habit of smokers; single dose of less than 300 mg,no definitive effect
same,effect of increasing dose,"smoking habit of smokers; single dose up to about 1,200 mg",Increased effectiveness
same,physiological symptoms of nicotine withdrawal,"smoking habit of smokers; single dose, some subjects","For some subjects, physiological symptoms of nicotine withdrawal were noted"
same,safe average daily intake,[3],2 mg per kg
same,hexobarbital-induced sleeping time,[4],potentiating hexobarbital-induced sleeping time
same,solubility in alcoholic solution,Solubility; compared with water,somewhat more soluble
same,solubility,"Solubility; one gram, water at 100° C., read-out: water to dissolve one gram completely (converted)",167 mg/mL
same,Cigarette Consumption per day at end (in words),"[5]; chewing gum, 600 mg/day, 1 day, subject 6a, for following 2 wks.",Reduced to 1/2 pack for following
same,Change in Smoking Pattern per cig.,[5]; [7],Less than 1/2
same,Cigarette Consumption per day at end,[5]; [7],7 cigarettes per day
same,Percentage Reduction,[5]; [7],40-50%
same,Change in Smoking Pattern per cig.,"[5]; chewing gum, 700 mg/day, course: 2c 30 days, 3b 8, 5a 14, 7c 40 days",Approx. 1/2; also recorded: Varied; also recorded: Less than 3/4; also recorded: Reduced to 2-3 puffs
same,Change in Smoking Pattern per cig.,[5]; [8],Approx. 1/2; also recorded: Less than 1/2; also recorded: Less than 3/4; also recorded: Reduced to light-up
same,Percentage Reduction,[5]; [8],70-80% and 41-68% and 75% and 75-80% and 70%
same,Cigarette Consumption per day at end,[5]; [9],0 cigarettes per day
same,Percentage Reduction,[5]; [9],100%
same,Change in Smoking Pattern per cig.,"[5]; chewing gum, 1000 mg/day, course: 4b 4 days, 7a 7, 12a 8 days",Less than 1/2; also recorded: Reduced to 3-4 puffs
same,Cigarette Consumption per day at end,[5]; [10],0 cigarettes per day
same,Percentage Reduction,[5]; [10],100%
same,Cigarette Consumption per day at end,[5]; [11],0 cigarettes per day
same,Percentage Reduction,[5]; [11],100%
same,Smoking during dose course (in words),"[5]; non-habit smoker 13a, chewing gum, 1000 mg/day, 2 days",Not able to finish cigarette
same,effectiveness of systemic administration,"[5]; tablet form, subjects 10 and 11, retention in the mouth not ruled out",partially effective
same,Change in Smoking Pattern per cig.,[5]; [12],Less than 3/4
same,Cigarette Consumption per day at end,[5]; [12],17-18 cigarettes per day
same,Percentage Reduction,[5]; [12],40-43%
same,Change in Smoking Pattern per cig.,[5]; [13],Reduced to 3-4 puffs
same,Cigarette Consumption per day at end,[5]; [13],10-12 cigarettes per day
same,Percentage Reduction,[5]; [13],70-75%
same,absorption,[6]; after oral administration,rapidly absorbed
same,excretion,[6]; after oral administration,rapidly excreted
same,form of excretion,[6]; after oral administration,primarily as glucuronide and ethereal sulfate conjugates
same,metabolism and excretion,[6]; in vivo,rapidly metabolized and excreted
